According to patent publication US20100204224A1, “AZACYCLIC COMPOUNDS AS INHIBITORS OF SENSORY NEURONE SPECIFIC SODIUM CHANNELS” (priority 2005, published 2010):

Target: T1, human Nav1.8 (hNav1.8) ion channel (Homo sapiens, UniProt Q9Y5Y9)
T1 construct: expressed in transfected cells
Experiment: Inhibition of human Nav1.8 stably expressed in SH-SY-5Y cells (membrane potential dye fluorescence assay)
Assay type: cell-based
Conditions: SH-SY-5Y hNav1.8 cells; FLIPR membrane potential dye; 10 μM pyrethroid, 250 nM TTX; test concentration range 100 μM-0.05 μM; read-out: hNav1.8 IC50
Protocol: Inhibition of Human Nav1.8 stably expressed in SH-SY-5Y Cells
A SH-SY-5Y neuroblastoma cell line stably expressing the human Nav1.8 (hNav1.8) ion channel was constructed. This cell line has been used to develop a medium to high throughput assay for determining the ability of test compounds to inhibit membrane depolarisation mediated via the hNav1.8 channel.
SH-SY-5Y hNav1.8 are grown in adherent monolayer culture using 50:50 Ham's F-12/EMEM tissue culture medium supplemented with 15% (v/v) foetal bovine serum; 2 mM L-glutamine, 1% NEAR and 600 μg·ml^−1 Geneticin sulphate. Cells are removed from the tissue culture flask using trypsin/EDTA and re-plated into black walled, clear bottom 96-well assay plates at 50,000 cells·well^−1 24 hours prior to assay.
On the day of assay the cell assay plates are washed to remove cell culture medium using a sodium free assay buffer (145 mM tetramethyl ammonium chloride; 2 mM calcium chloride; 0.8 mM magnesium chloride hexahydrate; 10 mM HEPES; 10 mM glucose; 5 mM potassium chloride, pH 7.4). Fluorescent membrane potential dye solution (FLIPR™ membrane potential dye, Molecular Devices Corporation), containing 10 μM of a pyrethroid to prevent channel inactivation and 250 nM tetrodotoxin (TTX) to reduce interference from TTX-sensitive sodium channels present in the cell line. Test compound, initially dissolved in dimethyl sulfoxide but further diluted in sodium free buffer, is added to achieve the final test concentration range of 100 μM-0.05 μM.
Cell plates are incubated for 30 minutes at room temperature to allow equilibration of dye and test compound. Plates are then transferred to a fluorescence plate reader for fluorescence measurement using an excitation wavelength of 530 nm whilst measuring fluorescence emission at 565 nm. Baseline fluorescence levels are first determined before the addition of a sodium containing buffer (220 mM sodium chloride; 2 mM calcium chloride; 0.8 mM magnesium chloride hexahydrate; 10 mM HEPES; 10 mM glucose; 5 mM potassium chloride. pH 7.4) to cause membrane depolarisation in those cells where channel block has not been effected (final sodium concentration=72.5 mM). Membrane depolarisation is registered by an increase in fluorescence emission at 565 nm.
The change in fluorescence seen in each test well upon the addition of sodium containing buffer is calculated relative to the baseline fluorescence for that well. This figure is then used for calculating the IC50 for each test compound.

T1 sequence (Q9Y5Y9 whole entry): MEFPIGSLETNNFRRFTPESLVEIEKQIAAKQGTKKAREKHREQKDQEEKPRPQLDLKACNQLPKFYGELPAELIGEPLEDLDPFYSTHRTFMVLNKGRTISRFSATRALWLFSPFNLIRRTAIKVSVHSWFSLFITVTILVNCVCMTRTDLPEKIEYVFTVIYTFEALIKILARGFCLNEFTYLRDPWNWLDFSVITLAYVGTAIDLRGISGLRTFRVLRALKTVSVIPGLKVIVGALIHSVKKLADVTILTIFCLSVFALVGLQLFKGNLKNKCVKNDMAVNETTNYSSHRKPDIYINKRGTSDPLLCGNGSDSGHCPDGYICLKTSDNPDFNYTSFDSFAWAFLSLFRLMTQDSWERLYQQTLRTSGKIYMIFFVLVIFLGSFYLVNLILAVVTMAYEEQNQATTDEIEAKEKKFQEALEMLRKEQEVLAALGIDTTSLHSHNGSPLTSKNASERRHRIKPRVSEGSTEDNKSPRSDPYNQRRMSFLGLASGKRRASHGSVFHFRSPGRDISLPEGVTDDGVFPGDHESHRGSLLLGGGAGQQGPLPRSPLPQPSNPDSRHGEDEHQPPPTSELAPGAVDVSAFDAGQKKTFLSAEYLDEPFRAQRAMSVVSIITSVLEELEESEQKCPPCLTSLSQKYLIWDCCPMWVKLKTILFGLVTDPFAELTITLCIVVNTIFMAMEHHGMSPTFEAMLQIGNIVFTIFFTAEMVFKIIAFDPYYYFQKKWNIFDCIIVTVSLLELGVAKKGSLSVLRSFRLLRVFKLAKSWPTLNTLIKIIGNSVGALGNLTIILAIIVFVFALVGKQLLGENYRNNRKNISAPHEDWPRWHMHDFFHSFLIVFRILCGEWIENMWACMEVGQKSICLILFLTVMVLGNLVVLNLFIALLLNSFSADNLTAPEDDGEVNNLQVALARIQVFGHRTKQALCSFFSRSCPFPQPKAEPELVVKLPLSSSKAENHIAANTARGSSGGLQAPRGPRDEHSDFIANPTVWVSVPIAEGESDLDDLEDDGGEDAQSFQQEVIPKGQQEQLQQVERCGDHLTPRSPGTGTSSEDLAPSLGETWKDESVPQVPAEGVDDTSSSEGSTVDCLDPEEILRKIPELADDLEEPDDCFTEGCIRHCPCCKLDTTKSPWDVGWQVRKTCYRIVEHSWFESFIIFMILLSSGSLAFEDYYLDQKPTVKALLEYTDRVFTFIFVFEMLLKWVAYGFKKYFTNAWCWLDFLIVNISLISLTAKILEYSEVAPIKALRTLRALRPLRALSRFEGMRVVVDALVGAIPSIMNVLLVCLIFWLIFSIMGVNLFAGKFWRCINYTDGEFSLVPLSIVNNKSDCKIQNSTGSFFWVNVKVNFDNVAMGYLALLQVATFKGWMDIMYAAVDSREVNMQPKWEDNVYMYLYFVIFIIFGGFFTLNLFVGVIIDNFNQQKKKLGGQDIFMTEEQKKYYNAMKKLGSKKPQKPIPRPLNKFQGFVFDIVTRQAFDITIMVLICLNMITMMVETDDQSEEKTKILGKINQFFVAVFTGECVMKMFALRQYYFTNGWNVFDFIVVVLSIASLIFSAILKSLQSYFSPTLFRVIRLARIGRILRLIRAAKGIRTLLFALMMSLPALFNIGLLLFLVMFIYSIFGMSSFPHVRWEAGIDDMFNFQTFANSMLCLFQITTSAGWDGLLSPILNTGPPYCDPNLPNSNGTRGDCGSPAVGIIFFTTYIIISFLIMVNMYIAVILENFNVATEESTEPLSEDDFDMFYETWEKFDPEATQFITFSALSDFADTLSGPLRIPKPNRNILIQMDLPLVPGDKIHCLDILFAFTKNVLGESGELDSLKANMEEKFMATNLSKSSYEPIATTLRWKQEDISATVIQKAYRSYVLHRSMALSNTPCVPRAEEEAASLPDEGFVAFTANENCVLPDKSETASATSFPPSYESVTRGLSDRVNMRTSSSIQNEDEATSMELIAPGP

SMILES | IC50
CC(c1ccc(F)cc1Cl)N1CC2CC1CN2C(=O)Nc1ccc(Oc2ccccc2)cc1 (centres unmarked) [Example 7, 5-[1-(2-Chloro-4-fluoro-phenyl)-ethyl]-2,5-diaza-bicyclo[2.2.1]heptane-2-carboxylic acid (4-phenoxy-phenyl)-amide] | 4.32 µM
Cc1ccccc1C(C)N1CC2CC1CN2C(=O)Nc1cccc(Oc2ccccc2)c1 (centres unmarked) [Example 8, 5-(1-o-Tolyl-ethyl)-2,5-diaza-bicyclo[2.2.1]heptane-2-carboxylic acid (3-phenoxy-phenyl)-amide] | 0.68 µM
CC(c1c(F)cccc1F)N1CC2CC1CN2C(=O)Nc1ccc(Oc2ccccc2)cc1 (centres unmarked) [Example 9, 5-[1-(2,6-Difluoro-phenyl)-ethyl]-2,5-diaza-bicyclo[2.2.1]heptane-2-carboxylic acid (4-phenoxy-phenyl)-amide] | 0.87 µM
CC(c1c(F)cccc1F)N1CC2CC1CN2C(=O)Nc1ccc(Oc2ccccc2)cc1 (centres unmarked) [Example 10, 5-[1-(2,6-Difluoro-phenyl)-ethyl]-2,5-diaza-bicyclo[2.2.1]heptane-2-carboxylic acid (4-phenoxy-phenyl)-amide] | 1.1 µM
CC(c1c(F)cccc1F)N1CC2CC1CN2C(=O)Nc1ccc(C(F)(F)F)cc1 (centres unmarked) [Example 13, 5-[1-(2,6-Difluoro-phenyl)-ethyl]-2,5-diaza-bicyclo[2.2.1]heptane-2-carboxylic acid (4-trifluoromethyl-phenyl)-amide] | 6.36 µM
Cc1ccsc1C(C)N1CC2CC1CN2C(=O)Nc1ccc(Oc2ccccc2)cc1 (centres unmarked) [Example 14, 5-[1-(3-Methyl-thiophen-2-yl)-ethyl]-2,5-diaza-bicyclo[2.2.1]heptane-2-carboxylic acid (4-phenoxy-phenyl)-amide] | 0.9 µM
Cc1ccsc1C(C)N1CC2CC1CN2C(=O)Nc1ccc(C(F)(F)F)cc1 (centres unmarked) [Example 15, 5-[1-(3-Methyl-thiophen-2-yl)-ethyl]-2,5-diaza-bicyclo[2.2.1]heptane-2-carboxylic acid (4-trifluoromethyl-phenyl)-amide] | 3.04 µM
CCOCCOCCOc1ccc(NC(=O)N2CC3CC2CN3C(C)c2ccccc2C)cc1 (centres unmarked) [Example 16, 5-(1-o-Tolyl-ethyl)-2,5-diaza-bicyclo[2.2.1]heptane-2-carboxylic acid {4-[2-(2-ethoxy-ethoxy)-ethoxy]-phenyl}-amide] | 25.6 µM
CCOCCOc1ccc(NC(=O)N2CC3CC2CN3C(C)c2ccccc2C)cc1 (centres unmarked) [Example 17, 5-(1-o-Tolyl-ethyl)-2,5-diaza-bicyclo[2.2.1]heptane-2-carboxylic acid [4-(2-ethoxy-ethoxy)-phenyl]-amide] | 28 µM
COCCOCCOc1ccc(NC(=O)N2CC3CC2CN3C(C)c2ccccc2C)cc1 (centres unmarked) [Example 18, 5-(1-o-Tolyl-ethyl)-2,5-diaza-bicyclo[2.2.1]heptane-2-carboxylic acid {4-[2-(2-methoxy-ethoxy)-ethoxy]-phenyl}-amide] | ≥ 30 µM
COCCOc1ccc(NC(=O)N2CC3CC2CN3C(C)c2ccccc2C)cc1 (centres unmarked) [Example 19, 5-(1-o-Tolyl-ethyl)-2,5-diaza-bicyclo[2.2.1]heptane-2-carboxylic acid [4-(2-methoxy-ethoxy)-phenyl]-amide] | ≥ 30 µM
C=CCOc1ccc(NC(=O)N2CC3CC2CN3C(C)c2ccccc2C)cc1 (centres unmarked) [Example 20, 5-(1-o-Tolyl-ethyl)-2,5-diaza-bicyclo[2.2.1]heptane-2-carboxylic acid (4-allyloxy-phenyl)-amide] | 3.42 µM
Cc1ccccc1C(C)N1CC2CC1CN2C(=O)Nc1ccc(OCCN(C)C)cc1 (centres unmarked) [Example 21, 5-(1-o-Tolyl-ethyl)-2,5-diaza-bicyclo[2.2.1]heptane-2-carboxylic acid [4-(2-dimethylamino-ethoxy)-phenyl]-amide] | 28.3 µM
Cc1ccccc1C(C)N1CC2CC1CN2C(=O)Nc1ccc(OC2CCOCC2)cc1 (centres unmarked) [Example 22, 5-(1-o-Tolyl-ethyl)-2,5-diaza-bicyclo[2.2.1]heptane-2-carboxylic acid [4-(tetrahydro-pyran-4-yloxy)-phenyl]-amide] | 18.9 µM
